Source: patent publication US20110044991A1, “METHODS AND COMPOSITIONS FOR TREATING LYMPHOMA AND MYELOMA” (IRM LLC, priority 2006, published 2011)
Like-named read-outs stand apart in the source and are kept apart here.

How the values were obtained:
Eμ-Myc lymphoma cells [1] = experiment: Luciferase assay and light microscopy of luciferased lymphoma cells on stromal layer; assay type: cell-based, mouse; conditions: for Response rate to cyclopamine treatment (responsive/tested cultures) / Response rate to cyclopamine treatment: Myc-lymphomas; for Response rate to cyclopamine treatment: >80% growth inhibition at 5 μM
Experimental: (§1) For Shh pathway inhibition on stroma, 6200 stroma cells were seeded per 96-well. After 24 hours 20,000 luciferased lymphoma cells were seeded on the stroma cells and 2 hours later compound or DMSO was added. Luciferase assay was performed with Bright-glow reagent as described. To generate cells overexpressing Hh pathway members, lymphoma cells were infected with Smo, Smo 535, Smo 562, Gli1 and Fused-pMSCV IRES GFP constructs and then sorted for GFP positive cells.
(§2) In order to investigate whether the Hh signalling pathway does indeed contribute to the survival and proliferation of lymphoma cells growing on an intact stromal layer, lymphoma cells were luciferased using a retrovirus expressing a puromycin/Luc fusion cassette. 2×10E4 lymphoma cells constitutively expressing luciferase were added to each 96-well containing a stromal layer (not expressing luciferase) isolated from Cdkn2a^−/− mice. A total of 34 individual Eμ-Myc-lymphomas and 8 Cdkn2a-lymphomas were tested. A luciferase assay was performed as a readout for cell viability and proliferation and results were also documented by light microscopy.

Cdkn2a−/− lymphoma cells = experiment: Luciferase assay of luciferased lymphoma cells on stromal layer; assay type: cell-based, mouse; conditions: for Response rate to cyclopamine treatment (responsive/tested cultures) / Response rate to cyclopamine treatment: Ink4a/Arf-/- lymphomas; for Response rate to cyclopamine treatment: >80% growth inhibition at 5 μM
Experimental: as §1, §2

lymphoma cells = experiment: Cell cycle distribution of gated viable cells; assay type: cell-based, mouse; conditions: after 12 hours of treatment; 20.4% before
Gli1, Ptch1, Bcl2 = experiment: Hh target expression in lymphoma cells (Western blot, quantitative RT-PCR); assay type: cell-based, mouse
Experimental: Western immunoblot: Whole-cell lysates were sonicated in 2% SDS/50 mM TrisHCl, pH8. Western blot using rabbit or goat polyclonal antibodies for Shh-N, c-Myc, Smo, Gli1 were performed as described. Shh-N, c-Myc and Smo antibodies were obtained from Santa Cruz Biotechnology, Gli1 (ab7523) antibody was obtained from Abcam Inc. (Cambridge, Mass.).
RT-PCR: Total cellular RNA was treated with DNase, reverse transcribed, amplified for 33 cycles at an annealing temperature of 55° C. Primers used were obtained from Integrated DNA Technologies (Coralville, Iowa).
To further substantiate a role for Hh/SMO signalling in Eμ-Myc and CDKN2a^−/− positive lymphoma we determined the expression of Hh pathway members in the lymphoma cells itself. Transcripts of all essential Hh pathway members (Smo, Ptc1, Ptc2, Gli1, and Gli2) were expressed in B-cell lymphomas, plasmoblastomas and plasmacytomas (FIG. 2E). Gli1 and Ptch represent direct target genes of the Hh pathway itself and are regulated at the transcriptional level by Hh signalling. […] Ptch1 transcript levels were decreased 10-fold within 18 h of pathway inhibition (FIG. 2G). Other target genes of the Hh pathway like Hip and Cyclin D1 could also be detected in the majority of lymphoma cells. […] All 3 Gli proteins have evolved specialized functions with distinct temporal and tissue-specific expression patterns. Unlike Gli1, which represents a direct transcriptional Hh-target gene, Gli2 and also Gli3 are considered latent transcriptional regulators activated by Hh signalling through modification of their N-terminal repressor domain.

[2] = tested on: Myc-Ly6 cells overexpressing Smo, Smo535, Smo562, Gli1 or Fused; experiment: Luciferase assay with lymphoma cells overexpressing Hh pathway members on stromal layer; assay type: cell-based, mouse; conditions: for IC50: Mus musculus, 48 h
Experimental: as §1

[3] = tested on: Myc lymphoma cells (p53−/−, Cdkn2a−/−, Bcl2+, Bax−/−, Caspase3−/−); conditions: for apoptosis: 5 μM, 48 hours
Description: Genetically altered mice and culture of primary cells: Eμ-Myc mice (Adams et al., Nature 318: 533-53824, 1985), Cdkna^−/− mice (Serrano et al., Cell. 85:27-3725, 1996), Bax^−/− mice (The Jackson Laboratory, Bar Harbor, Me.), Caspase3^−/− mice (The Jackson laboratory), p53^−/− mice (The Jackson Laboratory) and Bcl2 tg mice (The Jackson laboratory) were maintained and genotyped as described. Eμ-Myc mice and Cdkn2a−/− mice were monitored for signs of disease including development of visible lymphomas or weight loss from more than 15%. Mice with terminal disease were sacrificed, bone marrow, spleen and lymph nodes were extracted and lymphoma cells were propagated under Witlock/Witte culture conditions. For maintained growth cells were transferred on bone marrow stroma from Cdkn2a−/− mice after 2-3 weeks of culture. For generation of lymphomas with defined genetic background, bone marrow from p53−/− mice, Caspase3−/− mice, Bax−/− mice, Cdkn2a−/− mice and Bcl2 tg mice was extracted and pMSCV c-Myc IRES GFP was overexpressed. Propagation of transformed lymphocytes was performed under Witlick/Witte culture conditions and lymphomas were maintained on stroma from Cdkn2a−/− mice.
To better understand which specific pathways are involved in the regulation of growth and survival through Hh signalling in lymphoma cells, lymphoma cell cultures were generated in multiple different genetic backgrounds in order to modify either apoptotic or failsafe pathways. Bone marrow extracted from wt C57BL/6, Bcl2 transgenic, Bax^−/− Caspase-3^−/−, CDKN2a^−/− and p53^−/− mice was infected with pMSCV-Myc-GFP and transformed lymphocyte cultures were obtained using Whitlock/Witte culture conditions in the absence of IL-7. […] Similar to cultures established from primary lymphomas, lymphocytes transformed by retroviral transduction were transferred to bone marrow stroma of CDKN2a^−/− mice for longer term culture.

Eμ-Myc lymphoma cells [4] = experiment: Luciferased lymphoma cells injected into C57BL/6 mice, treatment from day 2; assay type: in vivo, mouse
Experimental: D: injection of 1 Mio luciferased lymphoma cells in C57B16 mice.
Mouse experiments: Black6 mice between 6 and 8 weeks of age were injected with 1 Mio luciferased lymphoma cells. […] Bioluminescence was measured with injection of […].
In order to verify the importance of the Hh pathway for lymphoma growth and expansion in mice, we injected 1e6 lymphoma cells expressing luciferase into syngeneic C57BL/6 mice. […] Luciferase levels were measured by bioluminescence imaging twice a week.

**Q.** With `CC1=C2C[C@H]3[C@@H](CC=C4C[C@@H](O)CC[C@@]43C)[C@@H]2CC[C@]12O[C@@H]1C[C@H](C)CN[C@H]1[C@H]2C` [cyclopamine] as the compound, how does the IC50 (Eμ-Myc lymphoma cells [1]; Mus musculus, 48 h, read-out: IC50 (concentration needed for 50% of maximal inhibition)) read?
**A.** The IC50 was 0.5 to 2 µM.

**Q.** What about the “clearance of lymphoma cells from the stromal layer” value (Eμ-Myc lymphoma cells [1]; Myc-Ly4, 5 μM, within 48 h) of the same compound?
**A.** The value was “complete clearance”.

**Q.** What about the “Response rate to cyclopamine treatment (responsive/tested cultures)” value (from here on “Response rate … (responsive/tested cultures)”) (Eμ-Myc lymphoma cells [1]; B-cell lymphoma) of the same compound?
**A.** Its value is 8/10 and (8/10).

**Q.** What about the “Response rate … (responsive/tested cultures)” value (Eμ-Myc lymphoma cells [1]; mixed lymphomas) of the same compound?
**A.** The value was 1/2.

**Q.** And the “Response rate to cyclopamine treatment” value (Eμ-Myc lymphoma cells [1]; mixed lymphomas)?
**A.** Its value is 50%.

**Q.** And the “Response rate … (responsive/tested cultures)” value (Eμ-Myc lymphoma cells [1]; plasmacytoma)?
**A.** Its value is 6/9.

**Q.** What about the “Response rate to cyclopamine treatment” value (Eμ-Myc lymphoma cells [1]; plasmacytoma) of the same compound?
**A.** The value was 66%.

**Q.** What about the “Response rate … (responsive/tested cultures)” value (Eμ-Myc lymphoma cells [1]; plasmoblastoma) of the same compound?
**A.** The value was 8/10 and (8/10).

**Q.** What about the “Response rate to cyclopamine treatment” value (Eμ-Myc lymphoma cells [1]; plasmoblastoma) of the same compound?
**A.** Its value is 80%.

**Q.** What about the “lymphomas sensitive to Hh pathway inhibition” value (Eμ-Myc lymphoma cells [1]; all Eμ-Myc-lymphomas, sensitivity = greater than 80% growth inhibition at 5 μM) of the same compound?
**A.** The value was 74.1%.

**Q.** What about the “Response rate … (responsive/tested cultures)” value (Cdkn2a−/− lymphoma cells; plasmacytoma) of the same compound?
**A.** Its value is “(2/4)”.

**Q.** And the “Response rate to cyclopamine treatment” value (Cdkn2a−/− lymphoma cells; plasmacytoma)?
**A.** Its value is 50%.

**Q.** And the “Response rate … (responsive/tested cultures)” value (Cdkn2a−/− lymphoma cells; plasmoblastoma)?
**A.** The value was “(2/4)”.

**Q.** What about the “Response rate to cyclopamine treatment” value (Cdkn2a−/− lymphoma cells; plasmoblastoma) of the same compound?
**A.** The value was 50%.

**Q.** And the “lymphomas sensitive to Hh pathway inhibition” value (Cdkn2a−/− lymphoma cells; all lymphomas from CDKN2a−/− mice, sensitivity = greater than 80% growth inhibition at 5 μM)?
**A.** The value was 50%.

**Q.** And the “G2/M phase of remaining viable cells” value (lymphoma cells)?
**A.** The value was 13.3%.

**Q.** And the “Bcl2 in Myc-lymphomas” value (Gli1, Ptch1, Bcl2; after cyclopamine treatment, Western blot)?
**A.** Its value is “downregulated”.

**Q.** And the “decrease of Ptch1 transcript levels” value (Gli1, Ptch1, Bcl2; within 18 h of pathway inhibition, 5 μM)?
**A.** Its value is 10 fold.

**Q.** And the “Gli1 protein in lymphoma cells” value (Gli1, Ptch1, Bcl2; within 24 hours, compared to actin control)?
**A.** Its value is “reduction of detectable Gli1 protein”.

**Q.** And the IC50 ([2]; cyclopamine sensitive lymphoma cell lines without overexpression)?
**A.** Its IC50 is 1 µM.

**Q.** What about the IC50 ([2]; overexpression of Fused) of the same compound?
**A.** The IC50 was over 10 µM.

**Q.** And the IC50 ([2]; overexpression of Gli1)?
**A.** Its IC50 is over 10 µM.

**Q.** What about the IC50 ([2]; overexpression of Smo A562G) of the same compound?
**A.** Its IC50 is 4.5 µM.

**Q.** What about the IC50 ([2]; overexpression of Smo W535L) of the same compound?
**A.** The IC50 was 3.5 µM.

**Q.** What about the IC50 ([2]; overexpression of Smo wt) of the same compound?
**A.** Its IC50 is 3 µM.

**Q.** What about the “apoptosis induction by cyclopamine” value ([2]; overexpression of Fused) of the same compound?
**A.** The value was “nearly complete inhibition of apoptosis induction”.

**Q.** And the “response of Myc-Ly6 to cyclopamine treatment” value ([2]; overexpression of Gli1)?
**A.** The value was “partial resistance”.

**Q.** And the cyclopamine induced apoptosis ([3]; Myc/Bax−/− cells)?
**A.** Its cyclopamine induced apoptosis is “partial resistance”.

**Q.** What about the cyclopamine induced apoptosis ([3]; Myc/Caspase 3−/− cells) of the same compound?
**A.** Its cyclopamine induced apoptosis is “partial resistance”.

**Q.** What about the apoptosis ([3]; Myc/Cdkn2a−/− lymphoma cells) of the same compound?
**A.** The apoptosis was “induced apoptosis”.

**Q.** What about the apoptosis ([3]; Myc/p53−/− lymphoma cells) of the same compound?
**A.** The apoptosis was “induced apoptosis”.

**Q.** And the median survival (Eμ-Myc lymphoma cells [4]; 25 mg/kg/day s.c., max 21 days, control group 16 days)?
**A.** The median survival was 20 days.

**Q.** What about the “signs of disease (bioluminescence imaging)” value (Eμ-Myc lymphoma cells [4]; 50 and 100 mg/kg/day s.c. from day 2, twelve days post-injection) of the same compound?
**A.** The value was “only minimal signs of disease”.

**Q.** What about the “response (survival curves)” value (Eμ-Myc lymphoma cells [4]; lymphoma with in vitro resistance and overexpression of Gli3, 100 mg/kg/day) of the same compound?
**A.** The value was “only minimal response”.

**Q.** What about the response in vivo (Eμ-Myc lymphoma cells [4]; two additional lymphoma cells (1 plasmoblastoma and 1 B-cell lymphoma), similar conditions) of the same compound?
**A.** The response in vivo was “responsive in vivo”.
